# Source: ChEMBL document CHEMBL5725558, “BTK Inhibitors” (2017)
# Target: Tyrosine-protein kinase BTK (Homo sapiens, UniProt Q06187)
# Test: Phosphorylation reactions were allowed to proceed for 120 minutes. […] After 60 minutes incubation with detection reagents, reaction plates were read on a PerkinElmer EnVision plate reader using standard TR-FRET protocol. […] IC50 values were determined by 4 parameter robust fit of TR-FRET ratio values vs. (Log10) compound concentrations.
# Sequence of Tyrosine-protein kinase BTK (Q06187 whole entry): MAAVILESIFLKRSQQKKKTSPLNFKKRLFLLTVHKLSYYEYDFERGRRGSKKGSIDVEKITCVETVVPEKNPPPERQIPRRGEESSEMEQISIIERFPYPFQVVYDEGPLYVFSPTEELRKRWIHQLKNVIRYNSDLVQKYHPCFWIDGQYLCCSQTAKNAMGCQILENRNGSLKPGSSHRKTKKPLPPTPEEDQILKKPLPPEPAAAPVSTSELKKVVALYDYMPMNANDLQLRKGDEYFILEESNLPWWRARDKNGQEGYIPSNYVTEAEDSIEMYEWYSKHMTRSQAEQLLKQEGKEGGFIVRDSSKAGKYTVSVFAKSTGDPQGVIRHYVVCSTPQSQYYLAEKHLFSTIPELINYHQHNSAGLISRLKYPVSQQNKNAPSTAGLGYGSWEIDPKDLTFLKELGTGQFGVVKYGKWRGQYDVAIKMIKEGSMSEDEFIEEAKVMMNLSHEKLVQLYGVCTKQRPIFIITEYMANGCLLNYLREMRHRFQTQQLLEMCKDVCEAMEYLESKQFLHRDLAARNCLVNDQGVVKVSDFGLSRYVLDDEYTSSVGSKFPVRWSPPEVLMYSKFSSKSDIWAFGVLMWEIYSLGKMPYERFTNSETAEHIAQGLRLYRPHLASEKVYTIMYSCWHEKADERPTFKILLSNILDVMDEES
structure (smiles),measurement,value
CC(=O)N1CCC[C@@H](c2nc(-c3ccc(C(=O)Nc4cc(C)ccn4)cc3)c3c(N)nccn23)C1,IC50,< 10 nM
